# Experimental data published in patent US7326707B2, “Bicyclic melanocortin-specific compounds” (Palatin Technologies Incorporated, priority 2001, dated 2008).
# Key:
# [1] = molecular target: T1, B-16 mouse melanoma cells (containing MC1-R) (Mus musculus, UniProt Q01727); test: Competitive inhibition binding assay, 125I-NDP-α-MSH, MC1-R; conditions: for Inhibition at 1 μM MC1-R: 1 μM compound, inhibition of 125I-NDP-α-MSH binding, mean of triplicates, results less than 0% reported as 0%
# T1 construct: B-16 mouse melanoma cells (containing MC1-R); endogenous in cells; host or cells: B-16 mouse melanoma cells
# T1 sequence (Q01727 whole entry): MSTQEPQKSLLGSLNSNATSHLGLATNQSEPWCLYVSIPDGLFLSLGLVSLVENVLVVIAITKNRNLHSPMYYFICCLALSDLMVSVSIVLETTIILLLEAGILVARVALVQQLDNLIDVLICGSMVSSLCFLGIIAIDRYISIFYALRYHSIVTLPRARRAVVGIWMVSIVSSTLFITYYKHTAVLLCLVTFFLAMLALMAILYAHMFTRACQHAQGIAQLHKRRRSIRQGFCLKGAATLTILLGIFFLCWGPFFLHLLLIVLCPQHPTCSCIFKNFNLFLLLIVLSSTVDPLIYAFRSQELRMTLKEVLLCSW
# Method: (§1) Incubation was for 90 minutes at room temperature, after which the assay mixture was filtered and the membranes washed three times with ice cold buffer. The filter was dried and counted in a gamma counter for remaining radioactivity bound to the membranes. […] Each assay was conducted in triplicate and the actual mean values are described.
# [2] = molecular target: T2, MC5-R (HEK-293 cells expressing MC5-R) (Homo sapiens, UniProt P33032); test: cAMP assay for agonist/antagonist status, MC5-R; format: cell-based; conditions: cAMP assay as in Example 5
# T2 construct: expressed in transfected cells; host or cells: HEK-293
# T2 sequence (P33032 whole entry): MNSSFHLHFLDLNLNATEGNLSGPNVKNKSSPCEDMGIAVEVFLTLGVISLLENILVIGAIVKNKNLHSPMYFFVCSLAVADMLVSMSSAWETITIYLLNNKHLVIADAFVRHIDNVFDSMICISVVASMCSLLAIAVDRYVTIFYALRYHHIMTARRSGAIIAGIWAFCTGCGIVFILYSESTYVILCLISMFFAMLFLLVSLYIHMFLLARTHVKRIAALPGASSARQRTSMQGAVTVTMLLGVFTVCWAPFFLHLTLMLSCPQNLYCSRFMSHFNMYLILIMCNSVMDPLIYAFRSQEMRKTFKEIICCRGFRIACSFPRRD
# Method: (§2) The Ki (nM) of certain compounds of the invention were determined. Functional evaluation of compounds at melanocortin receptors was performed by measuring the accumulation of intracellular cAMP in HEK-293 cells expressing MC3-R, MC4-R or MC5-R, and in B-16 mouse melanoma cells (containing MC1-R). Cells, suspended in Earle's Balanced Salt Solution containing 10 mM HEPES, pH 7.5, 5 mM MgCl2, 1 mM glutamine, 0.1% albumin and 0.6 mM 3-isobutyl-1-methyl-xanthine, a phosphodiesterase inhibitor, were plated in 96 well plates at a density of 0.5×10^5 cells per well. Cells were incubated with the test compounds in the presence or absence of α-MSH for 1 hour at 37° C. cAMP levels were measured by EIA (Amersham) in the cell lysates. Data analysis and EC50 values were determined using nonlinear regression analysis with Prism Graph-Pad software.
# (§3) The agonist/antagonist status with respect to MC1-R, MC4-R and MC5-R of certain compounds of the invention was determined. Antagonistic activity was determined by measuring the inhibition of α-MSH-induced cAMP levels following exposure to the compounds as in Example 4.
# [3] = molecular target: T3, MC3-R (HEK-293 cells expressing MC3-R) (Homo sapiens, UniProt P41968); test: Ki determination by the method of Example 4, MC3-R; format: cell-based
# T3 construct: expressed in transfected cells; host or cells: HEK-293
# T3 sequence (P41968 whole entry): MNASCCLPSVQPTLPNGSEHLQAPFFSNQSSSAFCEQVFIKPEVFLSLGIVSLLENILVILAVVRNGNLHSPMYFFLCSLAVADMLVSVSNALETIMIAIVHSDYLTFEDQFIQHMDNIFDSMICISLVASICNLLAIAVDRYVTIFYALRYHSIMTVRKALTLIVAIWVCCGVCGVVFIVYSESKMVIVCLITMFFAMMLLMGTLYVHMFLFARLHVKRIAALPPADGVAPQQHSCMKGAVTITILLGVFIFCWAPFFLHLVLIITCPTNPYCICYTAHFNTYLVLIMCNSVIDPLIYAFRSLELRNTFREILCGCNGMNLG
# [4] = molecular target: T4, MC4-R (HEK-293 cells expressing MC4-R) (Homo sapiens, UniProt P32245); test: Ki determination by the method of Example 4, MC4-R; format: cell-based
# T4 construct: expressed in transfected cells; host or cells: HEK-293
# T4 sequence (P32245 whole entry): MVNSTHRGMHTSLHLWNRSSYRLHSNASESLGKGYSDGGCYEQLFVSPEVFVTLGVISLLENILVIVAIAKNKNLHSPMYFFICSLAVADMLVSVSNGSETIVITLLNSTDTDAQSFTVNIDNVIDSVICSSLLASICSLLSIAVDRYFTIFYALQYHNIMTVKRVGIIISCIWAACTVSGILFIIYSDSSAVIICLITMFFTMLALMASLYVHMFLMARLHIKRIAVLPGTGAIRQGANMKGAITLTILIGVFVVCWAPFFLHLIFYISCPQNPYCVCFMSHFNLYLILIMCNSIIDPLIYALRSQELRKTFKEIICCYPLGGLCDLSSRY
# Method: as §2
# [5] = molecular target: T5, MC1-R (B-16 mouse melanoma cells) (Mus musculus, UniProt Q01727); test: Ki determination by the method of Example 4, MC1-R; format: cell-based
# T5 construct: B-16 mouse melanoma cells (containing MC1-R); endogenous in cells; host or cells: B-16 mouse melanoma cells
# T5 sequence (Q01727 whole entry): as the sequence (Q01727 whole entry) above
# [6] = molecular target: T6, hMC5-R (Homo sapiens, UniProt P33032); test: Competitive inhibition binding assay, 125I-NDP-α-MSH, MC5-R; conditions: for Inhibition at 1 μM MC5-R: 1 μM compound, inhibition of 125I-NDP-α-MSH binding, mean of triplicates, results less than 0% reported as 0%
# T6 construct: expressed in transfected cells
# T6 sequence (P33032 whole entry): as the sequence (P33032 whole entry) above
# Method: as §1
# [7] = molecular target: T2, MC5-R (HEK-293 cells expressing MC5-R); test: Ki determination by the method of Example 4, MC5-R; format: cell-based
# [8] = molecular target: T5, MC1-R (B-16 mouse melanoma cells); test: cAMP assay for agonist/antagonist status, MC1-R; format: cell-based; conditions: cAMP assay as in Example 5
# Method: as §2, §3
# [9] = molecular target: T4, MC4-R (HEK-293 cells expressing MC4-R); test: cAMP assay for agonist/antagonist status, MC4-R; format: cell-based; conditions: cAMP assay as in Example 5
# Method: as §2, §3
# [10] = molecular target: T7, hMC4-R (Homo sapiens, UniProt P32245); test: Competitive inhibition binding assay, 125I-NDP-α-MSH, MC4-R; conditions: for Inhibition at 1 μM MC4-R: 1 μM compound, inhibition of 125I-NDP-α-MSH binding, mean of triplicates, results less than 0% reported as 0%
# T7 construct: expressed in transfected cells
# T7 sequence (P32245 whole entry): as the sequence (P32245 whole entry) above
# Method: as §1
# [11] = molecular target: T8, hMC3-R (Homo sapiens, UniProt P41968); test: Competitive inhibition binding assay, 125I-NDP-α-MSH, MC3-R; conditions: for Inhibition at 1 μM MC3-R: 1 μM compound, inhibition of 125I-NDP-α-MSH binding, mean of triplicates, results less than 0% reported as 0%
# T8 construct: expressed in transfected cells
# T8 sequence (P41968 whole entry): as the sequence (P41968 whole entry) above
# Method: as §1
# [12] = test system: Male Sprague-Dawley rats; test: ICV food intake and body weight change; format: in vivo, rat; conditions: 1 nmol dose
# Method: Change in food intake and body weight was evaluated for selected compounds. Male Sprague-Dawley rats weighing ˜300 g at the beginning of the experiment were kept on a 12 hour on/off light cycle. Lights out was adjusted to 12:00 p.m. to allow for dosing just prior to the start of their dark period. Rats (8-12/group) were fed powdered chow and water ad libitum. For 1 week before treatment, 24-hour food intake and body weight change was recorded to assess a baseline for the group during vehicle treatment. The rats were dosed ICV with vehicle or selected compounds (1-3 nmol). The changes in body weight and food intake for the 24 hour period after dosing were determined. The changes in body weight and food intake for the 48 hour period, and in same cases for 72 hours as well, after dosing were also measured to determined reversal of changes in body weight and food intake effect back to baseline.
SMILES,inhibition at 1 µM [1] [%],agonist/antagonist status as to MC5-R [2],Ki [3] [nM],Ki [4] [nM],Ki [5] [nM],inhibition at 1 µM [6] [%],Ki [7] [nM],agonist/antagonist status as to MC1-R [8],agonist/antagonist status as to MC4-R [9],inhibition at 1 µM [10] [%],inhibition at 1 µM [11] [%],Inhibition at 1 μM MC1-R [1] [%],Inhibition at 1 μM MC5-R [6] [%],Inhibition at 1 μM MC4-R [10] [%],Inhibition at 1 μM MC3-R [11] [%],24 hour change in food intake [12] [g],change in weight ([12]; 24 hour) [g]
N=C(N)NCCCC1C(=O)N2C(COc3ccc4ccccc4c3)CCC2N1C(=O)C(N)Cc1ccc(Cl)cc1Cl (centres unmarked) [Compound B],54,agonist,132,11,144,69,499,agonist,agonist,98,75,,,,,,
N=C(N)NCCCC1C(=O)N2C(Cc3ccc4ccccc4c3)CCC2N1C(=O)C(N)Cc1ccc(Cl)cc1Cl (centres unmarked) [Compound G],76,agonist,121,19,63,46,1050,,agonist,93,63,,,,,,
N=C(N)NCCCC1C(=O)N2C(COc3ccc4ccccc4c3)CCC2N1CC(N)Cc1ccc(Cl)cc1Cl (centres unmarked) [Compound O],2,,505,29,848,49,689,,,91,28,,,,,,
NCCCCC1C(=O)N2C(COc3ccc4ccccc4c3)CCC2N1C(=O)C(Cc1ccc(Cl)cc1)NC(=O)C1Cc2ccccc2CN1 (centres unmarked) [Example 11],95,,787,24,10,73,398,,,94,24,,,,,,
CCCCCCC(=O)NC(COCc1ccccc1)C(=O)NC(Cc1ccc(Cl)cc1)C(=O)N1C(CCCCN)C(=O)N2C(COc3ccc4ccccc4c3)CCC21 (centres unmarked) [Example 12],98,,181,22,13,95,116,,,98,75,,,,,,
[2H]N[C@@H](Cc1cnc[nH]1)C(=O)N[C@@H](Cc1ccccc1)C(=O)N1C[C@H](OCc2ccccc2)C[C@H]1C(=O)NCCCCCN [Example 26],,,,,,,,,,,,34,14,47,0,,
[2H]N[C@@H](Cc1cnc[nH]1)C(=O)N[C@@H](Cc1ccccc1)C(=O)N1C[C@H](OCc2ccccc2)C[C@H]1C(=O)NCCCCCCN [Example 27],,,,,,,,,,,,39,17,12,0,,
N=C(N)NCCCC1C(=O)N2C(COc3ccc4ccccc4c3)CCC2N1C(=O)C(Cc1ccccc1Cl)NC(=O)C1Cc2ccccc2CN1 (centres unmarked) [Example 29],77,,756,9,81,87,301,,,98,42,,,,,,
N=C(N)NCCCC1C(=O)N2C(COc3ccc4ccccc4c3)CCC2N1C(=O)C(Cc1ccccc1Cl)NC(=O)C(N)COCc1ccccc1 (centres unmarked) [Example 30],57,,733,41,121,94,151,,,94,29,,,,,,
N=C(N)NCCCC1C(=O)N2C(COc3ccc4ccccc4c3)CCC2N1C(=O)C(Cc1ccccc1Cl)NC(=O)C1CC(OCc2ccccc2)CN1 (centres unmarked) [Example 31],,,,,,,,agonist,agonist,,,,,,,,
[2H]N[C@@H](Cc1ccccc1)C(=O)N1C2CC[C@H](COc3ccccc3)N2C(=O)[C@@H]1CCCCN (some centres unmarked) [Example 36],1,,,,,0,,,,0,4,,,,,,
[2H]N[C@@H](Cc1ccccc1)C(=O)N1C2CC[C@H](COc3ccc4ccccc4c3)N2C(=O)[C@@H]1CCCCN (some centres unmarked) [Example 38],46,,,,,1,,,,0,13,,,,,,
[2H]N[C@@H](Cc1cnc[nH]1)C(=O)N[C@@H](Cc1ccccc1)C(=O)N1C2CC[C@H](COc3ccc4ccccc4c3)N2C(=O)[C@@H]1CCCCN (some centres unmarked) [Example 42],,,,,,0,,,,36,0,,,,,,
N=C(N)NCCCC1C(=O)N2C(COc3ccc4ccccc4c3)CCC2N1C(=O)C(Cc1ccc(Cl)cc1Cl)NC(=O)C1CCC(c2ccccc2)N1 (centres unmarked) [Example 46],,,312,,1040,,,,,,,,,,,-9.52,-10.64
